“Also recorded” adds a separate entry of the source.
How the values were obtained:
[1] = in vivo; Walle 2011, Chang et al. 2016; cited from earlier work
[2] = system: MMP-9; settings: Cheng et al. 2009, Gao et al. 2014; cited from earlier work
[3] = biological target: T1, MMP-9 (Homo sapiens, UniProt P14780); test: MMP-9 activity in TNF-alpha activated THP-1 cell line (gelatin zymography); type: cell-based; settings: for inhibition of MMP-9 activity: 30 μM, 24 h, THP-1 activated with 10 ng/mL TNF-α, zymogram (FIG. 3); for dose-response effect on the inhibitory activity of MMP9: zymogram and curve (FIG. 4)
T1 construct: endogenous in cells
T1 sequence (P14780 94-707): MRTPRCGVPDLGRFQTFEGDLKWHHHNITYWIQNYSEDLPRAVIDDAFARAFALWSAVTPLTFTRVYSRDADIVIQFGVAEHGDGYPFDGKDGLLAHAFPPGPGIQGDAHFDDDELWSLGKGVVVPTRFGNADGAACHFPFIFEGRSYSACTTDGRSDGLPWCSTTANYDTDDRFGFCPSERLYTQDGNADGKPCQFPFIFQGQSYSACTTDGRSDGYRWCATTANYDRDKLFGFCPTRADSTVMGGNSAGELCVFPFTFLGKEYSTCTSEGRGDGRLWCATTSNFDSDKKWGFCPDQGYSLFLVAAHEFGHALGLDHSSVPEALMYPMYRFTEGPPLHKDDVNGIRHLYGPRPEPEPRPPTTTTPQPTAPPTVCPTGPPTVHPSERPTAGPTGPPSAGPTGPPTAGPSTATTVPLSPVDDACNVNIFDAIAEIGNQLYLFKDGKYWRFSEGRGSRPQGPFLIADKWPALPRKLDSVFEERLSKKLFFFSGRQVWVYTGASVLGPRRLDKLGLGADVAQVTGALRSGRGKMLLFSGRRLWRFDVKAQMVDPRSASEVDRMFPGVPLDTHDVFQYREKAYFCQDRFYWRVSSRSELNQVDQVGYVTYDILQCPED
Method: THP-1 cells (human monocytic THP-1 cell line) were cultured in 10% heated inactivated FBS RPMI 1640 medium supplemented with penicillin G 100 units/mL and streptomycin 100 μg/mL purchased from Fisher Scientific™ (Illkirch-Graffenstaden, France).
THP-1 cells were seeded (3×10^5 cell/well) in 24-well plate with 10 ng/mL TNF-α with or without 30 μM of resveratrol derivatives dissolved in DMSO. After 24 hours incubation at 37° C., supernatant was collected and tested on zymography.
Low-serum (1%) RPMI-1640 medium was used for the assessment of MMP-9 activity on TNF-alpha activated THP-1 cell line 3×10^6 cell/mL. Firstly, resveratrol and its derived lipophenolic compounds were dissolve in DMSO, and incubated at a final concentration of 30 μM with 10 ng/mL TNF-alpha treated THP-1 in CO2 incubator chamber for 24 hours at 37° C. After incubation, cell suspension was centrifuged at 1200 r.p.m for five minutes, supernatant was recovered and stored at −80° C. for zymogram analysis.
The anti MMP-9 activity was assessed using gelatin zymography. In brief, the collected supernatants were loaded on 10% SDS-polyacrylamide gel electrophoresis (PAGE) supplemented with 1% gelatin without reducing agents. After separation, gels were washed three times with 2.5% Triton X-100 and incubated with gelatinase buffer (NaCl 200 mM, Tris Base 50 mM, CaCl2) 5 mM and ZnCl2 0.25 mM; pH 7.5), for 24 hr at 37° C. on an orbital shaker at 100 r.p.m/min. Gels were further stained for one hour with Commassie Blue-staining solution (0.025% Commassie Blue, 40% methanol and 10% acetic acid) followed by destaining with 20% methanol and 10% glacial acetic acid solution until the clear bands appearance. Gels were photographed and analyzed by GelAnalyzer 2010a™ software.

[4] = system: TNF-α release by LPS-activated BV-2 microglia; test: TNF-α release by LPS-activated BV-2 microglia (AlphaLISA); type: cell-based, murine; settings: 30 μM, 24 h after LPS, BV2 cells, mean±SEM (FIG. 7)
Method: BV-2 cells that are derived from raf/myc-immortalised murine neonatal microglia are the most frequently used substitute for primary microglia (Blasi et al., 1990).
BV-2 cells were maintained in 75 cm2 culture flasks in Dulbecco's Modified Eagle's Medium (DMEM, Sigma) supplemented with 10% fetal bovine serum (FBS, Sigma) and 1% Penicillin-Streptomycin solution (Sigma), and cultured at 37° C. in a humidified atmosphere of 5% CO2.
BV-2 cells were plated on 24-well plates at a density of 10^5 cells per well. On the following day cells were subjected to different treatments. To study the effect of Resv-LA on TNF-alpha production by LPS activated BV-2 cells, the cells were incubated in medium containing 1 mg/ml LPS (Sigma-Aldrich) for 24 h, with or without Resv-LA (REV-LA) 30 μM.
Supernatants from untreated and treated cells were centrifuged at 5000 rpm for 5 minutes and assayed for their TNF-α contents using the TNF-α (mouse) AlphaLISA Detection Kit of Perkin-Elmer. TNF-α released was normalized by cell number and expressed as percentage of the maximal released obtained in the LPS-stimulated condition.
Data are expressed as mean±SEM. Statistical analysis of differences between groups was performed by using unpaired t-test/Mann-Whitney. […]

[5] = system: HUVEC cells and THP-1 cell line; test: Cell viability assay (MTT assay); type: cell-based; settings: 10, 20, 40 μM, 72 h, MTT (FIG. 6)
Method: The MTT assay is a test used to evaluate the cytotoxicity of compounds.
The cytotoxicity assay was carried out as described by Mosmann (Mosmann 1983). HUVEC cells and THP-1 cell line (1×10^4 cell/well) were seeded in 96-well plate and incubated CO2 incubator chamber at 37° C. for 24 h. Cells were treated with serial dilutions of lipophenolic derivative of resveratrol at a final concentration of 10, 20, 40 and 80 μM, and plate was incubated for 72 hours. Supernatant was discarded and MTT-serum-free medium was added to each plate and incubated for three additional hours. The formed formazan blue crystals were further dissolved by addition of 100 μL of 10% SDS in 0.1 N HCl to each plate for 2 hours. The optical density was measured at 570 nm (reference filter 690 nm) using a TECAN™ plate reader. Lethal Concentration 50% (LC50) was calculated using GraphPad Prism v.5 software.

[6] = system: HUVEC monolayer; test: In vitro vascular permeability assay (FITC-dextran endothelial permeability assay); type: cell-based, human; settings: 10 μM, 100 ng/mL TNF-α, 24 h (FIG. 5)
Method: Human umbilical vascular endothelial cells (HUVECs) were cultured in low serum (1%) EndoGro™ medium kit purchased from Merck Millipore™ (Paris, France). TNF-α was purchased from PeproTech™ (Neuilly-Sur-Seine, France). The permeability of HUVEC monolayer seeded on collagen coated semi-permeable inserts was examined using in vitro vascular permeability assay kit, Millipore™ (Paris, France) according to the manufacturer protocol. Endothelial cells are seeded into the inserts and cultured until complete monolayer formation occurs. After forming confluent monolayer by seeding HUVECs (4×10^5 cells/insert) for 48 hours, medium was replaced with 100 ng/mL TNF-α in medium with and without MMP-9 inhibitors at 10 μM and incubated for 24 hours in CO2 chamber at 37° C. Lipophenolic derivatives of resveratrol were dissolved in DMSO, and SB-3CT (gelatinase inhibitor) was dissolved in DMSO. At the end of the permeability treatment, 150 μl FITC-dextran in media solution were incubated for 20 minutes at room temperature protected from light. FITC-dextran permeates the treated cell monolayer into the plate well. Permeation was stopped by removing the inserts and 100 μl were withdrawn from the receiving tray and added to 96-well opaque plate for fluorescence measurement. The resulting fluorescence in the plate well is measured and used as an indicator of the extent of monolayer permeability. […]

SMILES	inhibition of MMP-9 activity [3]	dose-response effect on the inhibitory activity of MMP9 [3]	cytotoxic effect on viability [5]	further results
Oc1ccc(C=Cc2cc(O)cc(O)c2)cc1 [Resveratrol]				bioavailability [1]: poor bioavailability; inhibition of the activity of MMP-9 (reported) [2]: inhibit the activity of MMP-9
CC/C=C\C/C=C\C/C=C\C/C=C\C/C=C\C/C=C\CCC(=O)Oc1cc(O)cc(/C=C/c2ccc(O)cc2)c1 [Compound 3-Resv-DHA, (4,7,10,13,16,19Z)-3-hydroxy-5-((E)-4-hydroxystyryl)phenyl docosa-4,7,10,13,16,19-hexaenoate]	did not show any inhibitory activity; also recorded: not active			
CC/C=C\C/C=C\C/C=C\C/C=C\C/C=C\C/C=C\CCC(=O)Oc1ccc(/C=C/c2cc(O)cc(O)c2)cc1 [4′-Resv-DHA, (4,7,10,13,16,19 Z)-4-((E)-3,5-dihydroxyphenylstyryl)phenyl docosa-4,7,10,13,16,19-hexaenoate]	reduced MMP-9 activity			
CCCCC/C=C\C/C=C\CCCCCCCC(=O)Oc1ccc(/C=C/c2cc(O)cc(O)c2)cc1 [Resv-LA, (9,12Z)-4-((E)-3,5-dihydroxystyryl)phenyl octadeca-9,12-dienoate]	best activity; also recorded: demonstrated inhibition of MMP9-activity	dose-response effect	does not have cytotoxic effect	TNF-α released, as percentage of the maximal released obtained in the LPS-stimulated condition [4]: 66.1±4.2 percentage; inhibition of TNF-alpha-enhanced permeability of the HUVEC monolayer [6]: demonstrated inhibition
CCCCCCCCCCCCCCCCCCCCCC(=O)Oc1ccc(/C=C/c2cc(O)cc(O)c2)cc1 [Resv-C22, (E)-4-(3,5-dihydroxystyryl)phenyl docosanoate]	demonstrated inhibition of MMP9-activity	dose-response effect	does not have cytotoxic effect	
